Laboratory results reported in patent US20170369492A1 (Takeda Pharmaceutical Company Limited, priority 2014, published 2017).

Target: T1, human GPR43 (Homo sapiens, UniProt O15552)
T1 construct: expressed in transfected cells
T1 sequence (O15552 1-330): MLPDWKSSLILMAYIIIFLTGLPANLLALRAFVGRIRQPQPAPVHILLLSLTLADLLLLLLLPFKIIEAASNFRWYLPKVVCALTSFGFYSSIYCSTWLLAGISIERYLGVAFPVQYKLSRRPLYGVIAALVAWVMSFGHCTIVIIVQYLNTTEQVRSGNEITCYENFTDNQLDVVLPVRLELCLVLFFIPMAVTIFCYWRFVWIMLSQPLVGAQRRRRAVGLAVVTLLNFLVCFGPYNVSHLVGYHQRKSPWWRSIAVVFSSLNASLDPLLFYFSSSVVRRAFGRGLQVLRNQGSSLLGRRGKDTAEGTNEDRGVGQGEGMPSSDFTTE
Experiment: Ca-Flux Functional Assay: Determination of Agonist/Positive Allosteric Modulator (PAM) Activity
Type: cell-based
Conditions: CHO-K1 Gα16 cells stably expressing human GPR43; compound added in the presence of EC20 sodium acetate; intracellular Ca2+ by FLIPR; agonist/PAM activity not distinguished
Outline: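 FLIPR calcium read in CHO-K1 Gα16 cells stably expressing human GPR43, loaded with Calcium 5 dye in HBSS/HEPES/probenecid/BSA for 1 h at 37 °C. Compounds were tested in 10-point half-log series from 10 μM, co-added with sodium acetate at its EC20. EC50 taken from duplicate-well curves, capturing agonist or PAM activity without distinction.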

Structure (SMILES) | EC50 [nM]
CC1(C)CCCN(S(=O)(=O)c2c(N)n(C3CCCCC3)c3nccnc23)C1 [Example 92, 5-cyclohexyl-7-(3,3-dimethylpiperidine-1-sulfonyl)-5H-pyrrolo[2,3-b]pyrazin-6-amine] | 440
Nc1c(S(=O)(=O)c2ccc3c(c2)OCCO3)c2nccnc2n1C1CCCCC1 [Example 117, 5-cyclohexyl-7-(2,3-dihydro-1,4-benzodioxine-6-sulfonyl)-5H-pyrrolo[2,3-b]pyrazin-6-amine] | 124
COc1nc(C)nc2c(S(=O)(=O)c3cccc(F)c3)c(N)n(C3CCCCC3)c12 [Example 39, 5-cyclohexyl-7-(3-fluorobenzenesulfonyl)-4-methoxy-2-methyl-5H-pyrrolo[3,2-d]pyrimidin-6-amine] | 657
Nc1c(S(=O)(=O)N2CCc3ccccc3C2)c2nccnc2n1C1CCCCC1 [Example 94, 5-cyclohexyl-7-(1,2,3,4-tetrahydroisoquinoline-2-sulfonyl)-5H-pyrrolo[2,3-b]pyrazin-6-amine] | 308
Nc1c(S(=O)(=O)N2CC(Oc3ccccc3)C2)c2nccnc2n1C1CCCCC1 [Example 99, 5-cyclohexyl-7-(3-phenoxyazetidine-1-sulfonyl)-5H-pyrrolo[2,3-b]pyrazin-6-amine] | 1550
Nc1c(S(=O)(=O)N2CCCC2)c2nccnc2n1C1CCCCC1 [Example 58, 5-cyclohexyl-7-(pyrrolidin-1-ylsulfonyl)-5H-pyrrolo[2,3-b]pyrazin-6-amine] | 2240
Nc1c(S(=O)(=O)N2CCC(F)(F)CC2)c2nccnc2n1C1CCCCC1 [Example 69, 5-cyclohexyl-7-((4,4-difluoropiperidin-1-yl)sulfonyl)-5H-pyrrolo[2,3-b]pyrazin-6-amine] | 547
Nc1c(S(=O)(=O)c2ccc(OC(F)F)cc2)c2nccnc2n1C1CCCCC1 [Example 118, 5-cyclohexyl-7-{[4-(difluoromethoxy)-benzene]sulfonyl}-5H-pyrrolo[2,3-b]pyrazin-6-amine] | 177
Cc1ccc(S(=O)(=O)c2c(N)n(C3CCCC3)c3nccnc23)cc1 [Example 4, 5-cyclopentyl-7-[(4-methylbenzene)sulfonyl]-5H-pyrrolo[2,3-b]pyrazin-6-amine] | 908
Nc1c(S(=O)(=O)N2CCC(C(F)(F)F)CC2)c2nccnc2n1C1CCCCC1 [Example 87, 5-cyclohexyl-7-[4-(trifluoromethyl)piperidine-1-sulfonyl]-5H-pyrrolo[2,3-b]pyrazin-6-amine] | 1550
Cc1ccc(S(=O)(=O)c2c(N)n(C3CCCCCC3)c3nccnc23)cc1 [Example 2, 5-cycloheptyl-7-[(4-methylbenzene)sulfonyl]-5H-pyrrolo[2,3-b]pyrazin-6-amine] | 218
Nc1c(S(=O)(=O)N2CCCCC2)c2nccnc2n1C1CCCCC1 [Example 57, 5-cyclohexyl-7-(piperidin-1-ylsulfonyl)-5H-pyrrolo[2,3-b]pyrazin-6-amine] | 259
Nc1c(S(=O)(=O)c2ccc(Cl)cc2)c2nccnc2n1C1CCCCC1 [Example 5, 7-[(4-chlorobenzene)sulfonyl]-5-cyclohexyl-5H-pyrrolo[2,3-b]pyrazin-6-amine] | 195
Nc1c(S(=O)(=O)NCC2CCCO2)c2nccnc2n1C1CCCCC1 (centres unmarked) [Example 96, 6-amino-5-cyclohexyl-N-(oxolan-2-ylmethyl)-5H-pyrrolo[2,3-b]pyrazine-7-sulfonamide] | 1950
Nc1c(S(=O)(=O)c2cccs2)c2nccnc2n1C1CCCCC1 [Example 8, 5-cyclohexyl-7-(thiophene-2-sulfonyl)-5H-pyrrolo[2,3-b]pyrazin-6-amine] | 118
CC1(C)CCN(S(=O)(=O)c2c(N)n(C3CCCCC3)c3nccnc23)CC1 [Example 66, 5-cyclohexyl-7-((4,4-dimethylpiperidin-1-yl)sulfonyl)-5H-pyrrolo[2,3-b]pyrazin-6-amine] | 327
CC1(C)CCN(S(=O)(=O)c2c(N)n(C3CCCCC3)c3nccnc23)C1 [Example 75, 5-cyclohexyl-7-(3,3-dimethylpyrrrolidine-1-sulfonyl)-5H-pyrrolo[2,3-b]pyrazin-6-amine] | 1190
CC(C)(C)CCn1c(N)c(S(=O)(=O)c2ccccc2)c2nccnc21 [Example 52, 5-(3,3-dimethylbutyl)-7-(phenylsulfonyl)-5H-pyrrolo[2,3-b]pyrazin-6-amine] | 822
CC(=O)N(C)C1CCN(S(=O)(=O)c2c(N)n(C3CCCCC3)c3nccnc23)CC1 [Example 79, N-(1-{6-amino-5-cyclohexyl-5H-pyrrolo[2,3-b]pyrazine-7-sulfonyl}piperidin-4-yl)-N-methylacetamide] | 5970

Next, values leading:

EC50 [nM] | Structure (SMILES)
209 | Nc1c(S(=O)(=O)c2ccccc2F)c2nccnc2n1C1CCCCC1 [Example 111, 5-cyclohexyl-7-[(2-fluorobenzene)sulfonyl]-5H-pyrrolo[2,3-b]pyrazin-6-amine]
199 | Nc1c(S(=O)(=O)c2ccccc2)c2ncnc(OCc3ccccc3)c2n1C1CCC(F)(F)CC1 [Example 30, 7-(benzenesulfonyl)-4-(benzyloxy)-5-(4,4-difluorocyclohexyl)-5H-pyrrolo[3,2-d]pyrimidin-6-amine]
2360 | Nc1c(S(=O)(=O)c2ccccc2)c2ccncc2n1C1CCCCC1 [Example 20, 3-(benzenesulfonyl)-1-cyclohexyl-1H-pyrrolo[2,3-]pyridin-2-amine]
1540 | Nc1c(S(=O)(=O)c2ccccc2)c2nccnc2n1CC1CCCC1 [Example 54, 5-(cyclopentylmethyl)-7-(phenylsulfonyl)-5H-pyrrolo[2,3-b]pyrazin-6-amine]
343 | Nc1c(S(=O)(=O)c2cccc(F)c2)c2nccnc2n1C1CCCCC1 [Example 110, 5-cyclohexyl-7-[(3-fluorobenzene)sulfonyl]-5H-pyrrolo[2,3-b]pyrazin-6-amine]
277 | Nc1c(S(=O)(=O)c2ccccc2)c2cc(Cl)nnc2n1C1CCCCC1 [Example 27, 5-(benzenesulfonyl)-3-chloro-7-cyclohexyl-7H-pyrrolo[2,3-c]pyridazin-6-amine]
559 | Nc1c(S(=O)(=O)c2ccccc2)c2cccnc2n1C1CCC(F)(F)CC1 [Example 17, 3-(benzenesulfonyl)-1-(4,4-difluorocyclohexyl)-1H-pyrrolo[2,3-b]pyridin-2-amine]
753 | Cc1ccc(S(=O)(=O)c2c(N)n(C3CCCCC3)c3ncccc23)cc1 [Example 11, 1-cyclohexyl-3-[(4-methylbenzene)sulfonyl]-1H-pyrrolo[2,3-b]pyridin-2-amine]
585 | Nc1c(S(=O)(=O)Nc2ccccc2)c2nccnc2n1C1CCCCC1 [Example 41, 6-amino-5-cyclohexyl-N-phenyl-5H-pyrrolo[2,3-b]pyrazine-7-sulfonamide]
3260 | Nc1c(S(=O)(=O)c2ccccc2)c2nccnc2n1CCC1CC1 [Example 48, 5-(2-cyclopropylethyl)-7-(phenylsulfonyl)-5H-pyrrolo[2,3-b]pyrazin-6-amine]
2720 | CNc1ncnc2c(S(=O)(=O)c3ccccc3)c(N)n(C3CCC(F)(F)CC3)c12 [Example 33, 7-(benzenesulfonyl)-5-(4,4-difluorocyclohexyl)-4-N-methyl-5H-pyrrolo[3,2-d]pyrimidine-4,6-diamine]
1080 | CC1CCCCC1n1c(N)c(S(=O)(=O)c2ccccc2)c2nccnc21 (mixture of isomers) [Example 44, 5-(2-methylcyclohexyl)-7-(phenylsulfonyl)-5H-pyrrolo[2,3-b]pyrazin-6-amine]
79 | COc1ncnc2c(S(=O)(=O)c3ccccc3)c(N)n(C3CCCCC3)c12 [Example 26, 7-(benzenesulfonyl)-5-cyclohexyl-4-methoxy-5H-pyrrolo[3,2-d]pyrimidin-6-amine]
